Measured values: patent US8530490B2, “Uracil compound or salt thereof having human deoxyuridine triphosphatase inhibitory activity” (Taiho Pharmaceutical Co., Ltd., priority 2008, dated 2013)

Each molecule was assayed against human dUTPase (Homo sapiens (Human), UniProt P33316) (assay: Human dUTPase inhibitory effect: production of [5-3H]dUMP from [5-3H]dUTP, measured by HPLC with flow scintillation). Conditions: [5-3H]dUMP production from [5-3H]dUTP, 37° C., 15 minutes.
Format: biochemical
In short: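 E. coli-expressed purified human dUTPase reacted with 1 μM dUTP stock containing [5-3H]dUTP in Tris pH 7.4, MgCl2, 2-mercaptoethanol and albumin, 15 min at 37° C; stopped by 1 min at 100° C. [5-3H]dUMP formed was separated by reversed-phase ion-pair HPLC and quantified by flow scintillation versus water control.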

human dUTPase, sequence (P33316 94-252): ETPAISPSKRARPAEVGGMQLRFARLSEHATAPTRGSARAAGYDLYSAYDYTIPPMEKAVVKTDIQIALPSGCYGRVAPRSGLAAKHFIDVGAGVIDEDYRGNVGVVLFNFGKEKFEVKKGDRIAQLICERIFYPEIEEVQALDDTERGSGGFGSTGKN

Compound	IC50 [nM]
CC[C@@H](NS(=O)(=O)c1ccc(Cn2ccc(=O)[nH]c2=O)cc1)c1ccc(F)c(OCC2CC2)c1 [Example 97, (R)—N-(1-(3-(cyclopropylmethoxy)-4-fluorophenyl)propyl)-4-((2,4-dioxo-3,4-dihydropyrimidin-1(2H)-yl)methyl)benzenesulfonamide]	580
CC[C@@](O)(CNS(=O)(=O)CCCn1ccc(=O)[nH]c1=O)c1ccc(F)c(OC2CCCC2)c1 [Example 99, (S)—N-(2-(3-(cyclopentyloxy)-4-fluorophenyl)-2-hydroxybutyl)-3-(2,4-dioxo-3,4-dihydroxypyrimidin-1(2H)-yl)propane-1-sulfonamide]	1810
C[C@@H](NS(=O)(=O)CC/C=C/Cn1ccc(=O)[nH]c1=O)c1ccc(F)c(OCC2CC2)c1 [Example 100, (R,E)-N-(1-(3-(cyclopropylmethoxy)-4-fluorophenyl)ethyl)-5-(2,4-dioxo-3,4-dihydropyrimidin-1(2H)-yl)pent-3-ene-1-sulfonamide]	40
C[C@@H](NS(=O)(=O)CCCCCn1ccc(=O)[nH]c1=O)c1ccc(F)c(OCC2CC2)c1 [Example 101, (R)—N-(1-(3-(cyclopropylmethoxy)-4-fluorophenyl)ethyl)-5-(2,4-dioxo-3,4-dihydropyrimidin-1(2H)-yl)pentane-1-sulfonamide]	70
O=c1ccn(CCCCCS(=O)(=O)NCc2cccc(OCC3CC3)c2)c(=O)[nH]1 [Example 103, N-(3-(cyclopropylmethoxy)benzyl)-5-(2,4-dioxo-3,4-dihydropyrimidin-1(2H)-yl)pentane-1-sulfonamide]	520
C[C@@H](NS(=O)(=O)CC/C=C/Cn1ccc(=O)[nH]c1=O)c1cccc(OC2CCCC2)c1 [Example 105, (R,E)-N-(1-(3-(cyclopentyloxy)phenyl)ethyl)-5-(2,4-dioxo-3,4-dihydropyrimidin-1(2H)-yl)pent-3-ene-1-sulfonamide]	170
C[C@@H](NS(=O)(=O)CC/C=C/Cn1ccc(=O)[nH]c1=O)c1cccc(OCC2CC2)c1 [Example 110, (R,E)-N-(1-(3-(cyclopropylmethoxy)phenyl)ethyl)-5-(2,4-dioxo-3,4-dihydropyrimidin-1(2H)-yl)pent-3-ene-1-sulfonamide]	50
O=c1ccn(C/C=C/CCS(=O)(=O)NCc2cccc(OCC3CC3)c2)c(=O)[nH]1 [Example 113, (E)-N-(3-(cyclopropylmethoxy)benzyl)-5-(2,4-dioxo-3,4-dihydropyrimidin-1(2H)-yl)pent-3-ene-1-sulfonamide]	410
O=c1ccn(CCCS(=O)(=O)N[C@H](c2ccc(F)cc2)c2cccc(OCC3CC3)c2)c(=O)[nH]1 [Example 114, (R)—N-((3-(cyclopropylmethoxy)phenyl)(4-fluorophenyl)methyl)-3-(2,4-dioxo-3,4-dihydropyrimidin-1(2H)-yl)propane-1-sulfonamide]	580
O=c1ccn(CCCS(=O)(=O)N[C@H](c2ccc(F)cc2)c2ccc(F)c(OCC3CC3)c2)c(=O)[nH]1 [Example 116, (R)—N-((3-(cyclopropylmethoxy)-4-fluorophenyl)(4-fluorophenyl)methyl)-3-(2,4-dioxo-3,4-dihydropyrimidin-1(2H)-yl)propane-1-sulfonamide]	350
O=c1ccn(CC2CCN(S(=O)(=O)NCc3cccc(OCC4CC4)c3)CC2)c(=O)[nH]1 [Example 128, N-(3-(cyclopropylmethoxy)benzyl)-4-((2,4-dioxo-3,4-dihydropyrimidin-1(2H)-yl)methyl)piperidine-1-sulfonamide]	270
O=c1ccn(CCCS(=O)(=O)N2CCC[C@@H]2C(O)(c2ccccc2)c2ccccc2)c(=O)[nH]1 [Example 130, (R)-1-(3-(2-(hydroxydiphenylmethyl)pyrrolidin-1-ylsulfonyl)propyl)pyrimidine-2,4(1H, 3H)-dione]	480
O=c1ccn(CCCS(=O)(=O)N2CCC[C@@H]2C(O)(c2ccc(F)cc2)c2ccc(F)cc2)c(=O)[nH]1 [Example 131, (R)-1-(3-(2-(bis(4-fluorophenyl)(hydroxy)methyl)pyrrolidin-1-ylsulfonyl)propyl)pyrimidine-2,4(1H, 3H)-dione]	400
O=c1ccn(CCCS(=O)(=O)N2CCC[C@@H]2C(O)(c2cccc(F)c2)c2cccc(F)c2)c(=O)[nH]1 [Example 132, (R)-1-(3-(2-(bis(3-fluorophenyl)(hydroxy)methyl)pyrrolidin-1-ylsulfonyl)propyl)pyrimidine-2,4(1H, 3H)-dione]	380
CN(CCc1cccc(OCC2CC2)c1)S(=O)(=O)CCCn1ccc(=O)[nH]c1=O [Example 134, N-(3-(cyclopropylmethoxy)phenethyl)-3-(2,4-dioxo-3,4-dihydropyrimidin-1(2H)-yl)-N-methylpropane-1-sulfonamide]	4540
COc1cccc(S(=O)(=O)NC(C)(C)CCCOCn2ccc(=O)[nH]c2=O)c1 [Example 135, N-(5-((2,4-dioxo-3,4-dihydropyrimidin-1(2H)-yl)methoxy)-2-methylpentan-2-yl)-3-methoxybenzenesulfonamide]	1120
CC(C)(CCCOCn1ccc(=O)[nH]c1=O)NS(=O)(=O)c1ccc(Cl)cc1 [Example 136, 4-chloro-N-(5-((2,4-dioxo-3,4-dihydropyrimidin-1(2H)-yl)methoxy)-2-methylpentan-2-yl)benzenesulfonamide]	3940
CC(C)(CCCOCn1ccc(=O)[nH]c1=O)NS(=O)(=O)c1ccc(Cl)c(Cl)c1 [Example 137, 3,4-dichloro-N-(5-((2,4-dioxo-3,4-dihydropyrimidin-1(2H)-yl)methoxy)-2-methylpentan-2-yl)benzenesulfonamide]	2050
CC(C)(CCCOCn1ccc(=O)[nH]c1=O)NS(=O)(=O)c1cc(Cl)c(Cl)s1 [Example 138, 4,5-dichloro-N-(5-((2,4-dioxo-3,4-dihydropyrimidin-1(2H)-yl)methoxy)-2-methylpentan-2-yl)thiophene-2-sulfonamide]	3890
CC(C)(CCCOCn1ccc(=O)[nH]c1=O)NS(=O)(=O)c1cc(Cl)cc(Cl)c1 [Example 139, 3,5-dichloro-N-(5-((2,4-dioxo-3,4-dihydropyrimidin-1(2H)-yl)methoxy)-2-methylpentan-2-yl)benzenesulfonamide]	4990
CC(C)(CCCOCn1ccc(=O)[nH]c1=O)NS(=O)(=O)c1cccc(Br)c1 [Example 141, 3-bromo-N-(5-((2,4-dioxo-3,4-dihydropyrimidin-1(2H)-yl)methoxy)-2-methylpentan-2-yl)benzenesulfonamide]	4350
CC(C)(CCCOCn1ccc(=O)[nH]c1=O)NS(=O)(=O)c1ccccc1Cl [Example 142, 2-chloro-N-(5-((2,4-dioxo-3,4-dihydropyrimidin-1(2H)-yl)methoxy)-2-methylpentan-2-yl)benzenesulfonamide]	7640

Now from value to molecule:

IC50 [nM]	Compound
660	C[C@@H](NS(=O)(=O)CCCn1ccc(=O)[nH]c1=O)c1ccc(F)c(OCC2CC2)c1 [Example 98, (R)—N-(1-(3-(cyclopropylmethoxy)-4-fluorophenyl)ethyl)-3-(2,4-dioxo-3,4-dihydropyrimidin-1(2H)-yl)propane-1-sulfonamide]
1460	C[C@@H](NS(=O)(=O)CCCn1ccc(=O)[nH]c1=O)c1cccc(OC2CCCC2)c1 [Example 104, (R)—N-(1-(3-(cyclopentyloxy)phenyl)ethyl)-3-(2,4-dioxo-3,4-dihydropyrimidin-1(2H)-yl)propane-1-sulfonamide]
120	C[C@@H](NS(=O)(=O)CCCCCn1ccc(=O)[nH]c1=O)c1cccc(OC2CCCC2)c1 [Example 106, (R)—N-(1-(3-(cyclopentyloxy)phenyl)ethyl)-5-(2,4-dioxo-3,4-dihydropyrimidin-1(2H)-yl)pentane-1-sulfonamide]
1720	C[C@@H](NS(=O)(=O)CCCn1ccc(=O)[nH]c1=O)c1cccc(OCC(F)F)c1 [Example 107, (R)—N-(1-(3-(2,2-difluoroethoxy)phenyl)ethyl)-3-(2,4-dioxo-3,4-dihydropyrimidin-1(2H)-yl)propane-1-sulfonamide]
1710	C[C@@H](NS(=O)(=O)CCCn1ccc(=O)[nH]c1=O)c1cccc(OCC2CC2)c1 [Example 108, (R)—N-(1-(3-(cyclopropylmethoxy)phenyl)ethyl)-3-(2,4-dioxo-3,4-dihydropyrimidin-1(2H)-yl)propane-1-sulfonamide]
120	C[C@@H](NS(=O)(=O)CCCCCn1ccc(=O)[nH]c1=O)c1cccc(OCC2CC2)c1 [Example 109, (R)—N-(1-(3-(cyclopropylmethoxy)phenyl)ethyl)-5-(2,4-dioxo-3,4-dihydropyrimidin-1(2H)-yl)pentane-1-sulfonamide]
8270	O=c1ccn(CCCS(=O)(=O)NC(c2ccccc2)c2ccccc2)c(=O)[nH]1 [Example 111, N-benzhydryl-3-(2,4-dioxo-3,4-dihydropyrimidin-1(2H)-yl)propane-1-sulfonamide]
2230	O=c1ccn(CCCS(=O)(=O)NC(c2ccccc2)c2cccc(OCC3CC3)c2)c(=O)[nH]1 (stereo not drawn) [Example 112, N-((3-(cyclopropylmethoxy)phenyl)(phenyl)methyl)-3-(2,4-dioxo-3,4-dihydropyrimidin-1(2H)-yl)propane-1-sulfonamide]
250	CC[C@@H](NS(=O)(=O)CCCn1ccc(=O)[nH]c1=O)c1ccc(F)c(OCC2CC2)c1 [Example 115, (R)—N-(1-(3-(cyclopropylmethoxy)-4-fluorophenyl)propyl)-3-(2,4-dioxo-3,4-dihydropyrimidin-1(2H)-yl)propane-1-sulfonamide]
9800	CC[C@@H](NS(=O)(=O)CCCn1ccc(=O)[nH]c1=O)c1ccccc1 [Example 118, (R)-3-(2,4-dioxo-3,4-dihydropyrimidin-1(2H)-yl)-N-(1-phenylpropyl)propane-1-sulfonamide]
6560	CN(CC1(c2ccccc2)CC1)S(=O)(=O)CCCn1ccc(=O)[nH]c1=O [Example 133, 3-(2,4-dioxo-3,4-dihydropyrimidin-1(2H)-yl)-N-methyl-N-((1-phenylcyclopropyl)methyl)propane-1-sulfonamide]
